Experimental data from patent US20040092515A1, “Diaminoquinazoline esters for use as dihydrofolate reductase inhibitors” (priority 2001, published 2004).

| SMILES | melting point [°C] |
| --- | --- |
| COc1cc(C(=O)OCc2ccc3nc(N)nc(N)c3c2)cc(OC)c1OC | 223 to 227 |
| COc1ccc(OC)c(C(=O)OCc2ccc3nc(N)nc(N)c3c2)c1 | 195 to 197 |
